# Patent US6479435B1, “Diaryl ethers and processes for their preparation and herbicidal and desiccant compositions containing them” (ISK Americas Incorporated, priority 1997, dated 2002)
# Tests used:
# Type in all cases: in vivo
# [1] = system: common ragweed (Ambrosia artemisiifolia L., AMBEL); experiment: Post-emerge greenhouse herbicide test, phytotoxicity rating; conditions: 14 days after application
# Outline: (§1)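 Scores use a 0 (no damage) to 100 (complete kill) scale, taken 14 days after a foliar spray. Acetone solutions with 0.25% v/v non-ionic surfactant were applied by track sprayer at 187 l/ha and 63-1000 g ai/ha to bottom-watered 2-3 leaf plants.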
# [2] = system: upland rice (Oryza sp., var.Tebonnet, RICE); experiment: Pre-emerge greenhouse test, crop damage rating; conditions: 14 days after application, rating scale 0-100
# Outline: (§2)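 Visual 0–100 injury rating (100 = all plants dead) taken 14 days after treatment. Rates of 125–1000 g ai/ha in acetone, 187 l/ha, were sprayed onto soil one day post-sowing; pots were surface-watered to incorporate, then bottom-watered.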
# [3] = system: field corn (Zea mays L., var. Dekalb 535, CORN); experiment: Pre-emerge greenhouse test, crop damage rating; conditions: 14 days after application, rating scale 0-100
# Outline: as §2
# [4] = system: green foxtail (Setaria viridis, SETVI); experiment: Pre-emerge greenhouse herbicide test, phytotoxicity rating; conditions: 14 days after application, rating scale 0-100
# Outline: as §2
# [5] = system: common ragweed (Ambrosia artemisiifolia L., AMBEL); experiment: as above; conditions: 14 days after application, rating scale 0-100
# Outline: as §2
# [6] = system: large crabgrass (Digitaria sanguinalis, DIGSA); experiment: as above; conditions: 14 days after application, rating scale 0-100
# Outline: as §2
# [7] = system: ivyleaf morningglory (Ipomoea hederacea, IPOHE); experiment: as above; conditions: 14 days after application, rating scale 0-100
# Outline: as §2
# [8] = system: redroot pigweed (Amaranthus retroflexus, AMARE); experiment: as above; conditions: 14 days after application, rating scale 0-100
# Outline: as §2
# [9] = system: velvetleaf (Abutilon theophrasti, ABUTH); experiment: as above; conditions: 14 days after application, rating scale 0-100
# Outline: as §2
# [10] = system: sicklepod (Cassia obtusifolia, CASOB); experiment: as above; conditions: 14 days after application, rating scale 0-100
# Outline: as §2
# [11] = system: lambsquarters (Chenopodium album, CHEAL); experiment: as above; conditions: 14 days after application, rating scale 0-100
# Outline: as §2
# [12] = system: barnyardgrass (Echinochloa crusgalli, ECHCG); experiment: as above; conditions: 14 days after application, rating scale 0-100
# Outline: as §2
# [13] = system: Johnsongrass (Sorghum halepense, SORHA); experiment: as above; conditions: 14 days after application, rating scale 0-100
# Outline: as §2
# [14] = system: soybean (Glycine max L., var. Pella 86, SOY); experiment: Pre-emerge greenhouse test, crop damage rating; parameters: key to SOY crop damage rating: 0 = no damage, 100 = complete death of all plants; conditions: 14 days after application, rating scale 0-100
# Outline: as §2
# [15] = system: green foxtail (Setaria viridis, SETVI); experiment: Post-emerge greenhouse herbicide test, phytotoxicity rating; conditions: 14 days after application
# Outline: as §1
# [16] = system: large crabgrass (Digitaria sanguinalis, DIGSA); experiment: as above; conditions: 14 days after application
# Outline: as §1
# [17] = system: ivyleaf morningglory (Ipomoea hederacea, IPOHE); experiment: as above; conditions: 14 days after application
# Outline: as §1
# [18] = system: redroot pigweed (Amaranthus retroflexus, AMARE); experiment: as above; conditions: 14 days after application
# Outline: as §1
# [19] = system: velvetleaf (Abutilon theophrasti, ABUTH); experiment: as above; conditions: 14 days after application
# Outline: as §1
# [20] = system: sicklepod (Cassia obtusifolia, CASOB); experiment: as above; conditions: 14 days after application
# Outline: as §1
# [21] = system: lambsquarters (Chenopodium album, CHEAL); experiment: as above; conditions: 14 days after application
# Outline: as §1
# [22] = system: barnyardgrass (Echinochloa crusgalli, ECHCG); experiment: as above; conditions: 14 days after application
# Outline: as §1
# [23] = system: Johnsongrass (Sorghum halepense, SORHA); experiment: as above; conditions: 14 days after application
# Outline: as §1
# [24] = system: upland rice (Oryza sp., var.Tebonnet, RICE); experiment: Post-emerge greenhouse test, crop damage rating; conditions: 14 days after application
# Outline: as §1
# [25] = system: field corn (Zea mays L., var. Dekalb 535, CORN); experiment: Post-emerge greenhouse test, crop damage rating; conditions: 14 days after application
# Outline: as §1
# [26] = system: soybean (Glycine max L., var. Pella 86, SOY); experiment: Post-emerge greenhouse test, crop damage rating; parameters: key to crop damage rating SOY: 0-100 scale: 0 = no damage, 100 = complete death of all plants; conditions: 14 days after application
# Outline: as §1
smiles,measurement,setting,value
O=c1n(-c2cc(Oc3cccc(Cl)n3)c(Cl)cc2F)c(=S)n2n1CCCC2 [Compound 8-26],phytotoxicity rating AMBEL,"[1]; rate 500 g ai/ha, scale 0-100",0
same,RICE crop damage rating,[2]; Rate 500 g al/ha,0
same,CORN crop damage rating,[3]; Rate 500 g al/ha,0
same,SETVI phytotoxicity rating,[4]; Rate 500 g al/ha,0
same,AMBEL phytotoxicity rating,[5]; Rate 500 g al/ha,0
same,DIGSA phytotoxicity rating,[6]; Rate 500 g al/ha,0
same,IPOHE phytotoxicity rating,[7]; Rate 500 g al/ha,0
same,AMARE phytotoxicity rating,[8]; Rate 500 g al/ha,0
same,ABUTH phytotoxicity rating,[9]; Rate 500 g al/ha,0
same,CASOB phytotoxicity rating,[10]; Rate 500 g al/ha,0
same,CHEAL phytotoxicity rating,[11]; Rate 500 g al/ha,0
same,ECHCG phytotoxicity rating,[12]; Rate 500 g al/ha,0
same,SORHA phytotoxicity rating,[13]; Rate 500 g al/ha,0
same,SOY crop damage rating,[14]; Rate 500 g al/ha,0
same,phytotoxicity rating SETVI,"[15]; rate 500 g ai/ha, scale 0-100",0
same,phytotoxicity rating DIGSA,"[16]; rate 500 g ai/ha, scale 0-100",0
same,phytotoxicity rating IPOHE,"[17]; rate 500 g ai/ha, scale 0-100",0
same,phytotoxicity rating AMARE,"[18]; rate 500 g ai/ha, scale 0-100",0
same,phytotoxicity rating ABUTH,"[19]; rate 500 g ai/ha, scale 0-100",0
same,phytotoxicity rating CASOB,"[20]; rate 500 g ai/ha, scale 0-100",0
same,phytotoxicity rating CHEAL,"[21]; rate 500 g ai/ha, scale 0-100",0
same,phytotoxicity rating ECHCG,"[22]; rate 500 g ai/ha, scale 0-100",0
same,phytotoxicity rating SORHA,"[23]; rate 500 g ai/ha, scale 0-100",0
same,crop damage rating RICE,"[24]; rate 500 g ai/ha, scale 0-100",0
same,crop damage rating CORN,"[25]; rate 500 g ai/ha, scale 0-100",0
same,crop damage rating SOY,"[26]; rate 500 g ai/ha, scale 0-100",0
Cn1c(C(F)(F)F)nc(-c2cc(Oc3ncccn3)c(Cl)cc2F)c1Cl [Compound 2-3],AMBEL phytotoxicity rating (0-100),[1]; 63 g al/ha,30
same,AMBEL phytotoxicity rating (0-100),[1]; 500 g al/ha,60
same,crop damage rating RICE,[2]; 125 g ai/ha,30
same,crop damage rating RICE,[2]; 500 g ai/ha,55
same,crop damage rating CORN,[3]; 125 g ai/ha,25
same,crop damage rating CORN,[3]; 500 g ai/ha,35
same,phytotoxicity rating SETVI,[4]; 125 g ai/ha,95
same,phytotoxicity rating SETVI,[4]; 500 g ai/ha,100
same,phytotoxicity rating AMBEL,[5]; 125 g ai/ha,35
same,phytotoxicity rating AMBEL,[5]; 500 g ai/ha,90
same,phytotoxicity rating DIGSA,[6]; 125 g ai/ha,100
same,phytotoxicity rating DIGSA,[6]; 500 g ai/ha,100
same,phytotoxicity rating IPOHE,[7]; 125 g ai/ha,20
same,phytotoxicity rating IPOHE,[7]; 500 g ai/ha,100
same,phytotoxicity rating AMARE,[8]; 125 g ai/ha,100
same,phytotoxicity rating AMARE,[8]; 500 g ai/ha,100
same,phytotoxicity rating ABUTH,[9]; 125 g ai/ha,100
same,phytotoxicity rating ABUTH,[9]; 500 g ai/ha,100
same,phytotoxicity rating CASOB,[10]; 125 g ai/ha,30
same,phytotoxicity rating CASOB,[10]; 500 g ai/ha,100
same,phytotoxicity rating CHEAL,[11]; 125 g ai/ha,100
same,phytotoxicity rating CHEAL,[11]; 500 g ai/ha,100
same,phytotoxicity rating ECHCG,[12]; 125 g ai/ha,80
same,phytotoxicity rating ECHCG,[12]; 500 g ai/ha,100
same,phytotoxicity rating SORHA,[13]; 125 g ai/ha,100
same,phytotoxicity rating SORHA,[13]; 500 g ai/ha,100
same,crop damage rating SOY,[14]; 125 g ai/ha,50
same,crop damage rating SOY,[14]; 500 g ai/ha,25
same,SETVI phytotoxicity rating (0-100),[15]; 63 g al/ha,100
same,SETVI phytotoxicity rating (0-100),[15]; 500 g al/ha,100
same,DIGSA phytotoxicity rating (0-100),[16]; 63 g al/ha,0
same,DIGSA phytotoxicity rating (0-100),[16]; 500 g al/ha,80
same,IPOHE phytotoxicity rating (0-100),[17]; 63 g al/ha,100
same,IPOHE phytotoxicity rating (0-100),[17]; 500 g al/ha,100
same,AMARE phytotoxicity rating (0-100),[18]; 63 g al/ha,100
same,AMARE phytotoxicity rating (0-100),[18]; 500 g al/ha,100
same,ABUTH phytotoxicity rating (0-100),[19]; 63 g al/ha,95
same,ABUTH phytotoxicity rating (0-100),[19]; 500 g al/ha,100
same,CASOB phytotoxicity rating (0-100),[20]; 63 g al/ha,30
same,CASOB phytotoxicity rating (0-100),[20]; 500 g al/ha,70
same,CHEAL phytotoxicity rating (0-100),[21]; 63 g al/ha,90
same,CHEAL phytotoxicity rating (0-100),[21]; 500 g al/ha,100
same,ECHCG phytotoxicity rating (0-100),[22]; 63 g al/ha,30
same,ECHCG phytotoxicity rating (0-100),[22]; 500 g al/ha,95
same,SORHA phytotoxicity rating (0-100),[23]; 63 g al/ha,80
same,SORHA phytotoxicity rating (0-100),[23]; 500 g al/ha,95
same,RICE crop damage rating (0-100),[24]; 63 g al/ha,40
same,RICE crop damage rating (0-100),[24]; 500 g al/ha,90
same,CORN crop damage rating (0-100),[25]; 63 g al/ha,30
same,CORN crop damage rating (0-100),[25]; 500 g al/ha,80
same,SOY crop damage rating (0-100),[26]; 63 g al/ha,90
same,SOY crop damage rating (0-100),[26]; 500 g al/ha,90
